This note sets out measurements from patent US20070208166A1, “Tao Kinase Modulators And Method Of Use” (Exelixis, Inc., priority 2003, published 2007).

Common to all, as to assay type: biochemical
Assay [1] addresses T1, KIAA 1361 (baculovirus expressed human KIAA 1361 kinase domain 2-322) (Homo sapiens, UniProt Q7L7X3).
T1 construct: human KIAA 1361 kinase domain 2-322; made in house
T1 sequence (Q7L7X3 2-322): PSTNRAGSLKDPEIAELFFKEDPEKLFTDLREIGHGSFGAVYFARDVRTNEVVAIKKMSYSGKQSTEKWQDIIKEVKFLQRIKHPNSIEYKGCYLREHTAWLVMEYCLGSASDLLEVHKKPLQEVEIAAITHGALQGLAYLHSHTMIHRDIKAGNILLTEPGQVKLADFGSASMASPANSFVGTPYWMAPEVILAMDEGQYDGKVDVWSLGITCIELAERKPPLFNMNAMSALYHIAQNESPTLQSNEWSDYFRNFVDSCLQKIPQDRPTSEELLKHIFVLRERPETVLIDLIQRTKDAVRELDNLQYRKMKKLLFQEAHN
The experiment in a line: KIAA 1361 Luciferase-Coupled Chemiluminescent Kinase assay (LCCA). As to conditions: 2 μM ATP, 10 μM MBP, 12 nM KIAA 1361, 2 hours; read-out: KIAA1361 inhibition IC50. The procedure:
(§1) Kinase activity and compound inhibition are investigated using one or more of the three assay formats described below. The ATP concentrations for each assay are selected to be close to the Michaelis-Menten constant (KM) for each individual kinase. Dose-response experiments are performed at 10 different inhibitor concentrations in a 384-well plate format. The data are fitted to four-parameter equation (2) below; where Y is the observed signal, X is the inhibitor concentration, Min is the background signal in the absence of enzyme (0% enzyme activity), Max is the signal in the absence of inhibitor (100% enzyme activity), IC50 is the inhibitor concentration at 50% enzyme inhibition and H represents the empirical Hill's slope to measure the cooperativity. Typically H is close to unity. Y=Min+(Max−Min)/(1+(X/IC50)ˆH) Equation (2) KIAA 1361 Assay: […]
(§2) KIAA 1361 biochemical activity was assessed using a Luciferase-Coupled Chemiluminescent Kinase assay (LCCA) format. Kinase activity was measured as the percent ATP remaining following the kinase reaction. Remaining ATP was detected by luciferase-luciferin-coupled chemiluminescence. Specifically, the reaction was initiated by mixing test compounds, 2 μM ATP, 10 μM MBP and 12 nM KIAA 1361 (baculovirus expressed human KIAA 1361 kinase domain 2-322) in a 20 uL assay buffer (20 mM Tris-HCL pH7.5, 10 mM MgCl2, 0.02% Triton X-100, 100 mM DTT, 2 mM MnCl2). The mixture is incubated at ambient temperature for 2 hours after which 20 uL luciferase-luciferin mix is added and the chemiluminescent signal read using a Wallac Victor^2 reader. The luciferase-luciferin mix consists of 50 mM HEPES, pH 7.8, 8.5 ug/mL oxalic acid (pH 7.8), 5 (or 50) mM DTT, 0.4% Triton X-100, 0.25 mg/mL coenzyme A, 63 uM AMP, 28 ug/mL luciferin and 40,000 units of light/mL luciferase.

In a further assay the target is T2, JIK (Homo sapiens, UniProt Q9H2K8).
T2 construct: 6 nM JIK (baculovirus expressed human KIAA 1361 kinase domain2-318); made in house
T2 sequence (Q9H2K8 2-318): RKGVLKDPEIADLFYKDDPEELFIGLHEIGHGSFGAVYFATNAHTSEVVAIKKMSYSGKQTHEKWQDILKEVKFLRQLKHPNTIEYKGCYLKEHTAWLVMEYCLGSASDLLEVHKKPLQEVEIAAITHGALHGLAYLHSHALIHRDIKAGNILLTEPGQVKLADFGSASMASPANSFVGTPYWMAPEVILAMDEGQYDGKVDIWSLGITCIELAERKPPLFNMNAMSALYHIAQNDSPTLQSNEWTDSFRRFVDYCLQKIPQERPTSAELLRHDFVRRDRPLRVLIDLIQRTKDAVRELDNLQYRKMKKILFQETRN
As to the kind of experiment: JIK Luciferase-Coupled Chemiluminescent Kinase assay (LCCA). As to conditions: 2 μM ATP, 10 μM MBP, 6 nM JIK, 2 hours; read-out: JIK inhibition IC50. The procedure: as §1
as §2, with “JIK biochemical” for “KIAA 1361 biochemical”, “and 6” for “and 12”, “nM JIK” for “nM KIAA 1361”, “kinase domain2-318)” for “kinase domain 2-322)”

The next assay concerns the target T3, TAO (Homo sapiens, UniProt Q9UL54).
T3 sequence (Q9UL54 1-1235): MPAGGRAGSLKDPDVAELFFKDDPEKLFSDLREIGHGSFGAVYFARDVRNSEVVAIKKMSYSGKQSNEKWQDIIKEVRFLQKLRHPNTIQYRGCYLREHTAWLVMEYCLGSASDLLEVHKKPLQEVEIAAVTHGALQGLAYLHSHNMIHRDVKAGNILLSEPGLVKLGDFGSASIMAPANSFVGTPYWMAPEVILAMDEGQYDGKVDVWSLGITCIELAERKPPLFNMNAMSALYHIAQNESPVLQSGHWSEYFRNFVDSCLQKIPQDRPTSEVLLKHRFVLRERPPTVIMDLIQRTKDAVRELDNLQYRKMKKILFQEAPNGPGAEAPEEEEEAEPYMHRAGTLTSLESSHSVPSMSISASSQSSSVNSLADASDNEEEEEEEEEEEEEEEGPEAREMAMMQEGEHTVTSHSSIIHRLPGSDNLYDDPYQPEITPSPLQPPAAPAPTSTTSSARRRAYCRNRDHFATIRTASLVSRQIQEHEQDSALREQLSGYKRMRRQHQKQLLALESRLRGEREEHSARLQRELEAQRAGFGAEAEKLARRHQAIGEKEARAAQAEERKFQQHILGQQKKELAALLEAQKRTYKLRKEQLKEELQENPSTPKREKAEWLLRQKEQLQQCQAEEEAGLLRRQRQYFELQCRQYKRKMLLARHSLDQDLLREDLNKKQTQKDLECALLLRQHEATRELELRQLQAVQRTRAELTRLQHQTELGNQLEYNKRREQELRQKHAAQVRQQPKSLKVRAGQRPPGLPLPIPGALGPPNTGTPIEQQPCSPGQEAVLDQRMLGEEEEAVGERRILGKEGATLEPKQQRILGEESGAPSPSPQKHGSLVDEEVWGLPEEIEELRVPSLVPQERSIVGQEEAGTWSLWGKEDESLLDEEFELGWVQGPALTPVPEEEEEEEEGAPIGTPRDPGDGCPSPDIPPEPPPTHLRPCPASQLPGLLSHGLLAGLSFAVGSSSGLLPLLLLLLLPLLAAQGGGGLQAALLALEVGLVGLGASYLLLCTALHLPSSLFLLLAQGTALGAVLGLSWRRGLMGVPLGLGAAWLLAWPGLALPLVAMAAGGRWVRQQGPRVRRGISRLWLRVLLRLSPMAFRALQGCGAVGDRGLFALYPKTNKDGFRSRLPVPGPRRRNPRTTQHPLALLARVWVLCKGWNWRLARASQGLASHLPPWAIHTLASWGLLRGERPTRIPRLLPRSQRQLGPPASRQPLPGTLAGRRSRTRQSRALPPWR
The experiment in a line: TAO Luciferase-Coupled Chemiluminescent Kinase assay (LCCA). The settings on record: 2 μM ATP, 10 μM MBP, 12 nM TAO, 2 hours; read-out: TAO inhibition IC50. The method, then:
as §1
as §2, with “TAO biochemical” for “KIAA 1361 biochemical”, “nM TAO” for “nM KIAA 1361”, “mM […],” for “mM HEPES,”, “[…]” for “0.25 mg/mL”

Where only a bound is given, the exact number is not on record here.

One may read the IC50 as the point on the concentration scale where inhibition reaches its midpoint. On to `CC(C)c1ccc(NC(=O)N2CCC[C@H]2C(=O)NCc2ccc(Cl)c(Cl)c2)cc1` [Entry 24, (2S)-N˜2˜-[(3,4-dichlorophenyl)methyl]-N˜1˜-[4-(1-methylethyl)phenyl]pyrrolidine-1,2-dicarboxamide], for which the values for the IC50 (in assay [1]; on JIK; on TAO) were 50 to 500 nM, 50 to 500 nM and 0.5 to 5 µM, respectively.
Turning to `O=C(CNC(=O)COc1ccc(Br)cc1)NCc1ccc(Cl)c(Cl)c1` [Entry 25, N˜2˜-{[(4-bromophenyl)oxy]acetyl}-N-[(3,4-dichlorophenyl)methyl]glycinamide], the values for the half-maximal inhibitory concentration (IC50) (in assay [1]; at JIK; on TAO) were 50 to 500 nM, 50 to 500 nM and 0.5 to 5 µM, respectively.
With `O=C(NC(C(=O)NC1CCCc2ccccc21)c1cccnc1)c1ccc(/N=N/c2ccccc2)cc1` (stereo not drawn) [Entry 26, N-[2-oxo-1-pyridin-3-yl-2-(1,2,3,4-tetrahydronaphthalen-1-ylamino)ethyl]-4-[(E)-phenyldiazenyl]benzamide], the IC50 was in the range of 500 to 5000 nM in assay [1], 50 to 500 nM at JIK and 0.5 to 5 µM at TAO.
Turning to `CCCCOc1ccc(C(=O)NCC(=O)NC2CCCc3ccccc32)cc1` (stereo not drawn) [Entry 27, 4-(butyloxy)-N-[2-oxo-2-(1,2,3,4-tetrahydronaphthalen-1-ylamino)ethyl]benzamide], the IC50 lay within 500 to 5000 nM in assay [1], 50 to 500 nM at JIK and 0.5 to 5 µM on TAO.
Regarding `COc1cccc(OCC(=O)NCC(=O)NC2CCCc3ccccc32)c1` (stereo not drawn) [Entry 28, N˜2˜-({[3-(methyloxy)phenyl]oxy}acetyl)-N-(1,2,3,4-tetrahydronaphthalen-1-yl)glycinamide], the results for the IC50 (in assay [1]; at JIK; on TAO) were 500 to 5000 nM, 50 to 500 nM and 0.5 to 5 µM, respectively.
As to `CCCCc1ccc(C(=O)NCC(=O)NC2CCCc3ccccc32)cc1` (stereo not drawn) [Entry 29, 4-butyl-N-[2-oxo-2-(1,2,3,4-tetrahydronaphthalen-1-ylamino)ethyl]benzamide], the 50% inhibitory concentration (IC50) was 500 to 5000 nM in assay [1], 500 to 5000 nM at JIK and above 5 µM on TAO.
Turning to `COc1ccc(/C=C/C(=O)N[C@@H](COCc2ccccc2)C(=O)NC(c2ccccc2)c2ccccc2)cc1OC` [Entry 30, N˜2˜-{(2E)-3-[3,4-bis(methyloxy)phenyl]prop-2-enoyl}-N-(diphenylmethyl)-O-(phenylmethyl)serinamide], the results for the IC50 (in assay [1]; at JIK; on TAO) were 500 to 5000 nM, 50 to 500 nM and above 5 µM, respectively.
In the case of `O=C(COc1ccc(OC(F)(F)F)cc1)NCC(=O)NC1CCCc2ccccc21` (stereo not drawn) [Entry 31, N-(1,2,3,4-tetrahydronaphthalen-1-yl)-N˜2˜-[({4-[(trifluoromethyl)oxy]phenyl}oxy)acetyl]glycinamide], the IC50 was 500 to 5000 nM in assay [1], 500 to 5000 nM on JIK and 0.5 to 5 µM at TAO.
As to `CC(C)CC(NC(=O)c1ccc(-c2ccccc2)cc1)C(=O)NC1CCCc2ccccc21` (stereo not drawn) [Entry 32, N-{3-methyl-1-[(1,2,3,4-tetrahydronaphthalen-1-ylamino)carbonyl]butyl}biphenyl-4-carboxamide], the figures for the IC50 (in assay [1]; on JIK; at TAO) were 500 to 5000 nM, 500 to 5000 nM and above 5 µM, respectively.
On to `O=C(COc1ccc(Cl)cc1)NCC(=O)NC1CCCc2ccccc21` (stereo not drawn) [Entry 34, N˜2˜-{[(4-chlorophenyl)oxy]acetyl}-N-(1,2,3,4-tetrahydronaphthalen-1-yl)glycinamide], for which the IC50 in assay [1] was above 5000 nM; on JIK it was 500 to 5000 nM; at TAO, above 5 µM.
Regarding `CCCCCOc1ccc(C(=O)NC(CC(C)C)C(=O)NC2CCCc3ccccc32)cc1` (stereo not drawn) [Entry 35, N˜2˜-{[4-(pentyloxy)phenyl]carbonyl}-N(1,2,3,4-tetrahydronaphthalen-1-yl)leucinamide], the IC50 in assay [1] is above 5000 nM; on JIK, 50 to 500 nM; at TAO it was 0.5 to 5 µM.
Turning to `CCCCCCOc1ccc(C(=O)NC(C)C(=O)NC2CCc3ccccc3C2)cc1` (stereo not drawn) [Entry 36, 4-(hexyloxy)-N-[1-methyl-2-oxo-2-(1,2,3,4-tetrahydronaphthalen-2-ylamino)ethyl]benzamide], the IC50 in assay [1] was above 5000 nM; on JIK, 50 to 500 nM; at TAO, above 5 µM.
